Article PMC7366380, “Discovery of a Potent and Selective Covalent Inhibitor and Activity-Based Probe for the Deubiquitylating Enzyme UCHL1, with Antifibrotic Activity” (Journal of the American Chemical Society, 2020)
Values joined by “and” are separate entries in the source; they are usually repeats but may differ in a detail not shown here. Equal values may be shown once.

What was measured:
Test in all cases: In-cell proteome-wide competitive ABPP, HEK293: other DUBs and proteins
[1] = molecular target: DUBs and other proteins in HEK293 cells (Homo sapiens, UniProt Q9Y5T5); details: replicates A-C; for Log2 reporter intensity values: USP16: competition with ABP 2, DMSO substract (FC); for Log2 reporter intensity values: USP16, DMSO subtracted
[2] = molecular target: T1, DUBs and other proteins in HEK293 cells (Homo sapiens, UniProt Q53GS9); details: replicates A-C; for Log2 reporter intensity values: USP39: competition with ABP 2, DMSO substract (FC); for Log2 reporter intensity values: USP39, DMSO subtracted
T1 sequence (Q53GS9 1-565): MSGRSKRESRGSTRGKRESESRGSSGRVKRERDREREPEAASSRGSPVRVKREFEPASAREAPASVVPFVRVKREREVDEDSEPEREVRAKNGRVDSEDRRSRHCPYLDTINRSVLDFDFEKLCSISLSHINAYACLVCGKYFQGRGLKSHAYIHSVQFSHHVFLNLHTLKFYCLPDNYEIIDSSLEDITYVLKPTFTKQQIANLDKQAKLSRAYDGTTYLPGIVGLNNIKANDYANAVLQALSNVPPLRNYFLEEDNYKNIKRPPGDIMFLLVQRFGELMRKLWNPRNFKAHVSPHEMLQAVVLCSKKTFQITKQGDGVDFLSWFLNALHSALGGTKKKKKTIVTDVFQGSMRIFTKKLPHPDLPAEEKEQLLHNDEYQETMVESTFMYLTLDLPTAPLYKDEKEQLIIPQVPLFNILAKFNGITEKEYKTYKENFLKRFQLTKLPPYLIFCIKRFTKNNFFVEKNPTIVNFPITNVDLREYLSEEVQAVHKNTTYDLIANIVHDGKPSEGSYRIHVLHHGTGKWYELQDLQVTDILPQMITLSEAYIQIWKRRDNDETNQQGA

[3] = molecular target: T2, DUBs and other proteins in HEK293 cells (Homo sapiens, UniProt Q9Y5K5); details: replicates A-C; for Log2 reporter intensity values: UCHL5: competition with ABP 2, DMSO substract (FC); for Log2 reporter intensity values: UCHL5, DMSO subtracted
T2 sequence (Q9Y5K5 1-329): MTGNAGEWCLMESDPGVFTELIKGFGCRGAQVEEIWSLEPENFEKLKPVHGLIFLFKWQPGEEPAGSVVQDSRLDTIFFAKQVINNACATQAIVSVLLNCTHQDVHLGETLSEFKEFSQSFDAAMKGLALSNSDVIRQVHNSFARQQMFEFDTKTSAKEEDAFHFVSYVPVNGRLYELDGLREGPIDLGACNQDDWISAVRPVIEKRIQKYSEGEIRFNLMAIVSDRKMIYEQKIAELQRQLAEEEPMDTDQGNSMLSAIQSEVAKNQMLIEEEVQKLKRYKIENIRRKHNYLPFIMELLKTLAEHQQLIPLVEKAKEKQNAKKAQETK

[4] = molecular target: T3, DUBs and other proteins in HEK293 cells (Homo sapiens, UniProt Q96K76); details: replicates A-C; for Log2 reporter intensity values: USP47: competition with ABP 2, DMSO substract (FC); for Log2 reporter intensity values: USP47, DMSO subtracted
T3 sequence (Q96K76 1-1375): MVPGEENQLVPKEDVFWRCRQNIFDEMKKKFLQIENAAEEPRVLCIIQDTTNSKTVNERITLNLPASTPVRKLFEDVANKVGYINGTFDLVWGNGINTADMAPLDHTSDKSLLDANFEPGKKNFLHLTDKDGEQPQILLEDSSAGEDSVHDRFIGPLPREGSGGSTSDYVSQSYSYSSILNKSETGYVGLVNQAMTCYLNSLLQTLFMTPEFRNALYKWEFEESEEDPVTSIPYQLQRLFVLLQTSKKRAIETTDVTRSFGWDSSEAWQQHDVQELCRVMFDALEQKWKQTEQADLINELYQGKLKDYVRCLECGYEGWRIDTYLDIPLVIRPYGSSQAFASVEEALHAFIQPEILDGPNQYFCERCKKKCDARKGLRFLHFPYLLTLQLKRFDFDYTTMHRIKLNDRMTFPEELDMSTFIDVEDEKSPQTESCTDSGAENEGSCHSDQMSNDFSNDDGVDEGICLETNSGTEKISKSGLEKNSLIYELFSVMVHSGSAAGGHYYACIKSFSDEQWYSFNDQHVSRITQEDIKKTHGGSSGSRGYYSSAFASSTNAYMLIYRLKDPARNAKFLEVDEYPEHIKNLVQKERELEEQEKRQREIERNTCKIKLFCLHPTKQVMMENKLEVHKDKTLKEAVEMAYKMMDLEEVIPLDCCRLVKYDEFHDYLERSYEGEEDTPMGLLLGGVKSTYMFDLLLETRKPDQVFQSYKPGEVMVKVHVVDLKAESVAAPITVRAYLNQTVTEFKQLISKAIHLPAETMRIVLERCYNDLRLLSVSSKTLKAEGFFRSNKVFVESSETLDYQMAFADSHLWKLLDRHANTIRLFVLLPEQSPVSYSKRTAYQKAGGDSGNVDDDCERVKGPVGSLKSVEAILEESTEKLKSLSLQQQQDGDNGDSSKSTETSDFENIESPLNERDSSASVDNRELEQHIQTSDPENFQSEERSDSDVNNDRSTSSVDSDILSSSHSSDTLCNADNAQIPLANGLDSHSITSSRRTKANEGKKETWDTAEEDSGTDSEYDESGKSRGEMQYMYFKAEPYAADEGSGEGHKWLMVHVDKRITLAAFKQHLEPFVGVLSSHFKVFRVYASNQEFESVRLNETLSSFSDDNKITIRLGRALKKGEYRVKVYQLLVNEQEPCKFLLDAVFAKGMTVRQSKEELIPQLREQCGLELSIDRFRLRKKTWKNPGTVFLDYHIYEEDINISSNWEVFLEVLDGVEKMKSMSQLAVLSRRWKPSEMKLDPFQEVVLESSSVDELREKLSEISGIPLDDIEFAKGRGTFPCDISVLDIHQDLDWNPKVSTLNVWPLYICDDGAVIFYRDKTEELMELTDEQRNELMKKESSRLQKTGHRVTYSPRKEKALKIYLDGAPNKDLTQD

Sequence of DUBs and other proteins in HEK293 cells (Homo sapiens, UniProt Q9Y5T5) (Q9Y5T5 whole entry): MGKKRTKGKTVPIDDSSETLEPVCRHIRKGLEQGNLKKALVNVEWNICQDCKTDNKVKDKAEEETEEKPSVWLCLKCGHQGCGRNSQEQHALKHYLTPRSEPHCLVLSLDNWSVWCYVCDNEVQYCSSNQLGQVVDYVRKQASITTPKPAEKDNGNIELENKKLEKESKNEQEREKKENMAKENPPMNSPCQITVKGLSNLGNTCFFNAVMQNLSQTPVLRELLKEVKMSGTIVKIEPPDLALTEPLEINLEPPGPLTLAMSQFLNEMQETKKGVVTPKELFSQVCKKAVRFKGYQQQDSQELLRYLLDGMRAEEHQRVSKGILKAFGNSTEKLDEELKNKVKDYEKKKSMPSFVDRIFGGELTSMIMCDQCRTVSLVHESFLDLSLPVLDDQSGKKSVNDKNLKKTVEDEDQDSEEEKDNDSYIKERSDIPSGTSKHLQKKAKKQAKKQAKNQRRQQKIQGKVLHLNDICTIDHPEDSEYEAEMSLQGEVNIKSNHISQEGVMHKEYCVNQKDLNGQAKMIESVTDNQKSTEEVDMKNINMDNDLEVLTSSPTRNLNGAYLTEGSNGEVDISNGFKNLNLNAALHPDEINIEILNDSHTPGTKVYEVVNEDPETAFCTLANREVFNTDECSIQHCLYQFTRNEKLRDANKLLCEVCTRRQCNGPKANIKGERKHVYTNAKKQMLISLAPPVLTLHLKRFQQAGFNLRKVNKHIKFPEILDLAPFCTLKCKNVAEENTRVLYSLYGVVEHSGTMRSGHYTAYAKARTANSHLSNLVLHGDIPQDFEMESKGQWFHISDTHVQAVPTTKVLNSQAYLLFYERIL

Log2 reporter intensity values: USP16 ([1]; 1 at 1 μM): 1.022 and 1.047 and 1.014 | Log2 reporter intensity values: USP16 ([1]; 1 at 4 μM): 1.071 and 1.22 and 1.147 | Log2 reporter intensity values ([1]; 1_1 μM): 0.01937 and 0.04439 and 0.01154 | Log2 reporter intensity values ([1]; 1_4 μM): 0.06901 and 0.2175 and 0.1444 | Log2 reporter intensity values ([1]; 1 at 1 μM): 0.03077 and 0.06568 and 0.01967 | Log2 reporter intensity values ([1]; 1 at 4 μM): 0.09923 and 0.2865 and 0.1974 | Log2 reporter intensity values: USP39 ([2]; 1 at 1 μM): 1.016 and 0.9671 and 0.9953 | Log2 reporter intensity values: USP39 ([2]; 1 at 4 μM): 1.053 and 0.9437 and 0.9559 | Log2 reporter intensity values ([2]; 1_1 μM): 0.01573 and -0.03349 and -0.00527 | Log2 reporter intensity values ([2]; 1_4 μM): 0.0526 and -0.05693 and -0.04466 | Log2 reporter intensity values ([2]; 1 at 1 μM): 0.02338 and -0.04824 and -0.006739 | Log2 reporter intensity values ([2]; 1 at 4 μM): 0.0748 and -0.08363 and -0.065 | Log2 reporter intensity values: UCHL5 ([3]; 1 at 1 μM): 1.121 and 1.059 and 1.084 | Log2 reporter intensity values: UCHL5 ([3]; 1 at 4 μM): 1.068 (2×) and 1.07 | Log2 reporter intensity values ([3]; 1_1 μM): 0.1208 and 0.05828 and 0.08364 | Log2 reporter intensity values ([3]; 1_4 μM): 0.06718 and 0.06755 and 0.06936 | Log2 reporter intensity values ([3]; 1 at 1 μM): 0.1653 and 0.08265 and 0.1168 | Log2 reporter intensity values ([3]; 1 at 4 μM): 0.09472 and 0.09521 and 0.09766 | Log2 reporter intensity values: USP47 ([4]; 1 at 1 μM): 0.973 and 1.08 and 1.022 | Log2 reporter intensity values: USP47 ([4]; 1 at 4 μM): 1.072 and 1.012 and 0.9583 | Log2 reporter intensity values ([4]; 1_1 μM): -0.02716 and 0.07955 and 0.02151 | Log2 reporter intensity values ([4]; 1_4 μM): 0.07173 and 0.01208 and -0.04184 | Log2 reporter intensity values ([4]; 1 at 1 μM): -0.03956 and 0.1106 and 0.03085 | Log2 reporter intensity values ([4]; 1 at 4 μM): 0.1001 and 0.01747 and -0.0615
Structure (SMILES): N#CN1CCC[C@H]1C(=O)N1CCc2c(-c3c[nH]c4ncccc34)cccc21 [Compound 1]
